Assay results as given in patent publication US8389534B2, “Pyrimidine non-classical cannabinoid compounds and related methods of use” (The University of Tennessee Research Foundation, priority 2008, dated 2013).

Assays:
[1] = test system: glioblastoma brain cancer cell line LN-229; experiment: Cytotoxicity assay (CCK8 viability); type: cell-based; conditions: Homo sapiens, cytotoxicity against LN-229 cells, 18 hours incubation
Description: Cytoxocity assay: Cells were seeded on a 96 well polystyrene plate in full serum media at a density of 75,000 cells per milliliter, 100 μL per well. Plates were incubated at 37° C. and 5% CO2 for 24 hours to allow cell attachment. Drug solutions were prepared in DMSO at 100× concentration and mixed 1:100 in 1% FBS media to yield the desired concentration. Drug-media mixtures were vortexed immediately prior to administration to cells. Full serum media was removed and replaced with drug-media mixtures and incubated for 18 hours. 10 μL of Cell Counting Kit 8 (CCK8, Dojindo# CK04-11) was added to each well to colormetrically assess viability. After 2-4 hours of incubation with the CCK8 dye, absorbance was read at 450 nm by a BioTek Synergy 2 plate reader.
The cytotoxicity of selected compounds against the glioblastoma brain cancer cell line LN-229 is depicted in Table 1.

| SMILES | melting point | EC50 [1] |
| --- | --- | --- |
| Oc1nc(Cc2ccccc2)nc(O)c1-c1ccccc1 | 336.6 °C |  |
| CC(C)(c1nc(O)c(-c2cc(Cl)cc(Cl)c2)c(O)n1)C1CCCCC1 [Compound 8g, 2-(2-Cyclohexylpropan-2-yl)-5-(3,5-dichlorophenyl)pyrimidine-4,6-diol] |  | 23.5 µM |
| CC(C)(c1ccccc1)c1nc(O)c(-c2cc(Cl)cc(Cl)c2)c(O)n1 [Compound 8h, 5-(3,5-Dichlorophenyl)-2-(2-phenylpropan-2-yl)pyrimidine-4,6-diol] |  | 51.8 µM |
| CCCCCCC(C)(C)c1nc(O)c(-c2cccc(C)c2)c(O)n1 [Compound 8j, 2-(2-Methyloctan-2-yl)-5-m-tolylpyrimidine-4,6-diol] |  | 55.4 µM |
